We go through 20 compounds from PubChem BioAssay AID192 (DTP/NCI, 2004).

SMILES strings stand for the structures. Toxic doses and inconclusive results are not listed.

For the test, the system named is BDF1 mice, B16 melanoma ip, median survival T/C. In words: NCI In Vivo Anticancer Drug Screen. Data for tumor model B16 Melanoma (intraperitoneal) in B6D2F1 (BDF1) mice. The settings on record: endpoint: median survival time, higher = longer survival. Put shortly: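 Vehicle-treated animals serve as the reference (C); treated animals (T) are scored for survival or tumor size after tumor transplantation.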

[1] abbreviates: dose: 3.13 mg/kg/injection, schedule: Q01DX009 (ip), vehicle: saline with Tween-80.
Setting [2] is: dose: 6.25 mg/kg/injection, schedule: Q01DX009 (ip), vehicle: saline with Tween-80.
Where [3] appears, read: dose: 12.5 mg/kg/injection, schedule: Q01DX009 (ip), vehicle: saline with Tween-80.
Setting [4] is: dose: 25.0 mg/kg/injection, schedule: Q01DX009 (ip), vehicle: saline with Tween-80.
Setting [5] is: dose: 50.0 mg/kg/injection, schedule: Q01DX009 (ip), vehicle: saline with Tween-80.
Setting [6] is: dose: 100.0 mg/kg/injection, schedule: Q01DX009 (ip), vehicle: saline with Tween-80.
The mark [7] stands for this setting: dose: 200.0 mg/kg/injection, schedule: Q01DX009 (ip), vehicle: saline with Tween-80.
Setting [8] is: dose: 50.0 mg/kg/injection, schedule: Q01DX009 (ip), vehicle: Klucel (hydroxypropylcellulose) (HPC).
[9] abbreviates: dose: 100.0 mg/kg/injection, schedule: Q01DX009 (ip), vehicle: Klucel (hydroxypropylcellulose) (HPC).
The mark [10] stands for this setting: dose: 200.0 mg/kg/injection, schedule: Q01DX009 (ip), vehicle: Klucel (hydroxypropylcellulose) (HPC).
The mark [11] stands for this setting: dose: 100.0 mg/kg/injection, schedule: Q04DX003 (ip), vehicle: Klucel (hydroxypropylcellulose) (HPC).
Where [12] appears, read: dose: 200.0 mg/kg/injection, schedule: Q04DX003 (ip), vehicle: Klucel (hydroxypropylcellulose) (HPC).
[13] abbreviates: dose: 50.0 mg/kg/injection, schedule: Q04DX003 (ip), vehicle: saline with Tween-80.
Setting [14] is: dose: 6.25 mg/kg/injection, schedule: Q01DX009 (ip), vehicle: saline.
Where [15] appears, read: dose: 12.5 mg/kg/injection, schedule: Q01DX009 (ip), vehicle: saline.
[16] abbreviates: dose: 400.0 mg/kg/injection, schedule: Q01DX009 (ip), vehicle: saline with Tween-80.
Setting [17] is: dose: 100.0 mg/kg/injection, schedule: Q04DX003 (ip), vehicle: saline with Tween-80.

In the case of `O=[N+]([O-])c1ccc(CSc2ncnc3c2ncn3C2OC(CO)C(O)C2O)cc1` (configuration not stated), the T/C under setting [1] was 90 % of control; the T/C under setting [2] is 90 % of control; the T/C under setting [3] was 90 % of control; the T/C under setting [4] is 86 % of control; the T/C under setting [5] is 86 % of control; the T/C under setting [6] is 79 % of control. In addition, the T/C under setting [7] was 75 % of control.
On to `Clc1ccc(COC(Cn2ccnc2)c2ccc(Cl)cc2Cl)c(Cl)c1` (configuration not stated), for which the T/C is 106 % of control (dose: 25.0 mg/kg/injection, schedule: Q01DX009 (ip), vehicle: Klucel (hydroxypropylcellulose) (HPC)); 115 % of control under setting [8]; 96 % of control under setting [9]; 106 % of control under setting [10].
Take `N=C(N)c1ccc(N=NNc2ccc(C(=N)N)cc2)cc1`: the T/C is 101 % of control under setting [3], 112 % of control under setting [4] and 114 % of control under setting [5].
`Cc1cccc(C2=NCCN2)c1C`: the T/C is, setting by setting: (dose: 5.0 mg/kg/injection, schedule: Q04DX003 (ip), vehicle: saline with Tween-80) 116 % of control; (dose: 20.0 mg/kg/injection, schedule: Q04DX003 (ip), vehicle: saline with Tween-80) 116 % of control.
On to `C(=NCCN1CCOCC1)=NC1CCCCC1`, for which the T/C is 108 % of control under setting [1], 110 % of control under setting [2] and 114 % of control under setting [3].
`C=C1C(O)C2(O)OCC34C(CC5C(C)=CC(=O)C(O)C5(C)C23)OC(=O)C(OC(=O)C(C)(O)CC)C14` (configuration not stated): the T/C is 109 % of control (dose: 0.06 mg/kg/injection, schedule: Q01DX009 (ip), vehicle: saline + alcohol) and 163 % of control (dose: 1.0 mg/kg/injection, schedule: Q01DX009 (ip), vehicle: saline + alcohol).
Take `Cc1c(Cl)cccc1NC(=O)c1ccc(Cl)cc1Cl`: the T/C under setting [11] was 95 % of control; the T/C under setting [12] was 102 % of control; the T/C (dose: 400.0 mg/kg/injection, schedule: Q04DX003 (ip), vehicle: Klucel (hydroxypropylcellulose) (HPC)) was 100 % of control.
With `CC(NC1=NCCO1)c1cccc2ccccc12` (configuration not stated), the T/C by setting is: (dose: 8.0 mg/kg/injection, schedule: Q04DX003 (ip), vehicle: saline with Tween-80) 102 % of control; (dose: 12.0 mg/kg/injection, schedule: Q04DX003 (ip), vehicle: saline with Tween-80) 115 % of control; under setting [3], 102 % of control; (dose: 18.0 mg/kg/injection, schedule: Q04DX003 (ip), vehicle: saline with Tween-80) 102 % of control; under setting [4], 106 % of control; under setting [5], 93 % of control. Further, the T/C under setting [13] is 123 % of control.
Take `CCC(=O)/C=C/C1C(C)=CCCC1(C)C` (configuration not stated): the T/C runs as follows: under setting [5], 104 % of control; under setting [6], 102 % of control.
As for `N/C(=N\O)c1cn(C2OC(CO)C(O)C2O)c2ncnc(N)c12` (configuration not stated), the T/C runs as follows: (dose: 1.0 mg/kg/injection, schedule: Q01DX009 (ip), vehicle: saline) 115 % of control; (dose: 2.0 mg/kg/injection, schedule: Q01DX009 (ip), vehicle: saline) 117 % of control; (dose: 4.0 mg/kg/injection, schedule: Q01DX009 (ip), vehicle: saline) 121 % of control.
With `N#CCCc1ccccc1`, the T/C reads like this: (dose: 3.13 mg/kg/injection, schedule: Q01DX009 (ip), vehicle: saline) 100 % of control; under setting [14], 97 % of control; under setting [15], 100 % of control.
As to `O=C(/C=C/c1cccc2ccccc12)c1ccc(Cl)cc1`, the T/C reads like this: under setting [8], 92 % of control; (dose: 50.0 mg/kg/injection, schedule: Q04DX003 (ip), vehicle: Klucel (hydroxypropylcellulose) (HPC)) 103 % of control; under setting [9], 96 % of control; under setting [11], 100 % of control; under setting [10], 92 % of control; under setting [12], 93 % of control.
Regarding `CCOc1ncc([N+](=O)[O-])c(OCC)n1`, the T/C is 104 % of control under setting [5], 100 % of control under setting [6] and 95 % of control under setting [16].
In the case of `Cl[C](Cl)(Cl)[Hg][c]1ccccc1`, the T/C (dose: 0.19 mg/kg/injection, schedule: Q01DX009 (ip), vehicle: saline) was 91 % of control; the T/C (dose: 0.38 mg/kg/injection, schedule: Q01DX009 (ip), vehicle: saline) was 92 % of control; the T/C (dose: 1.5 mg/kg/injection, schedule: Q01DX009 (ip), vehicle: saline) was 89 % of control.
Turning to `COC(=O)Nc1nc2ccc(C(=O)c3cccs3)cc2[nH]1`, the T/C runs as follows: (dose: 20.0 mg/kg/injection, schedule: Q01DX015 (ip), vehicle: saline) 97 % of control; (dose: 50.0 mg/kg/injection, schedule: Q04DX003 (ip), vehicle: other) 103 % of control; under setting [13], 180 % of control; (dose: 50.0 mg/kg/injection, schedule: Q05DX005 (ip), vehicle: saline) 165 % of control; (dose: 60.0 mg/kg/injection, schedule: Q05DX005 (ip), vehicle: saline) 195 % of control; (dose: 70.0 mg/kg/injection, schedule: Q05DX005 (ip), vehicle: saline) 191 % of control. Besides, the T/C is 121 % of control (dose: 75.0 mg/kg/injection, schedule: Q04DX003 (ip), vehicle: other) and 211 % of control under setting [17].
With `NC(=S)c1cn(C2OC(CO)C(O)C2O)c2ncnc(N)c12` (configuration not stated), the T/C is 89 % of control (dose: 2.5 mg/kg/injection, schedule: Q01DX009 (ip), vehicle: saline) and 91 % of control (dose: 5.0 mg/kg/injection, schedule: Q01DX009 (ip), vehicle: saline).
With `CC1(C)C2CCC1(C)C(COC(=O)c1cc([N+](=O)[O-])cc([N+](=O)[O-])c1)C2` (configuration not stated), the T/C by setting is: under setting [9], 96 % of control; under setting [10], 93 % of control; (dose: 400.0 mg/kg/injection, schedule: Q01DX009 (ip), vehicle: Klucel (hydroxypropylcellulose) (HPC)) 87 % of control.
Take `CCOC(=O)C(=CN1CCOCC1)C(=O)OCC`: the T/C is, setting by setting: under setting [6], 90 % of control; under setting [17], 100 % of control; under setting [7], 98 % of control; (dose: 200.0 mg/kg/injection, schedule: Q04DX003 (ip), vehicle: saline with Tween-80) 102 % of control; under setting [16], 98 % of control; (dose: 400.0 mg/kg/injection, schedule: Q04DX003 (ip), vehicle: saline with Tween-80) 109 % of control.
Take `COC1=CC(=O)C(C2CC(=O)c3c(O)cc(O)cc3O2)=CC1=O` (configuration not stated): the T/C reads like this: under setting [1], 102 % of control; under setting [2], 91 % of control; under setting [3], 89 % of control.
As to `COCC1OC(OC2OCC3OC4(OCC(O)(C(C)OC)C5OCOC54)OC3C2OC)C(OC)C(O)C1OC1OC(C)C(OC)C(OC2OC(C)C3OC4(CC(O)C(OC5CC(OC6CC(C)([N+](=O)[O-])C(OC)C(C)O6)C(OC(=O)c6c(C)c(Cl)c(O)c(Cl)c6OC)C(C)O5)C(C)O4)OC3(C)C2O)C1O` (configuration not stated), the T/C reads like this: under setting [14], 97 % of control; under setting [15], 95 % of control; (dose: 25.0 mg/kg/injection, schedule: Q01DX009 (ip), vehicle: saline) 100 % of control; (dose: 50.0 mg/kg/injection, schedule: Q01DX009 (ip), vehicle: saline) 101 % of control.
